In PMC8510601, “Discovery of benzamide-hydroxypyridinone hybrids as potent multi-targeting agents for the treatment of Alzheimer's disease” (Journal of Enzyme Inhibition and Medicinal Chemistry, 2021):

Columns and labels:
PC12 cells = test: Intracellular ROS detection (DCFH-DA), Aβ1–42-induced; assay type: cell-based; conditions: 8g and Aβ1–42 10 μM, flow cytometry
Procedure: Aβ deposition and peroxidation are also important clinical features of AD. Therefore, we subsequently assessed the antioxidation of compound 8g, using 2′,7′-dichlorofluorescin diacetate (DCFH-DA) to detect intracellular ROS generation on the PC12 cell line derived from neural pheochromocytoma. Based on our previous research, the concentration of 10 μM of compound 8g was chosen in this test. […]
8. Intracellular ROS detection

[1] = Iron-chelating activity test: affinity constants for Fe3+ and pFe3+
[2] = test system: scopolamine-induced cognitive dysfunction ICR mice; test: Morris water maze test, scopolamine-induced cognitive dysfunction; conditions: MWM last day, test agent 15 mg/kg i.p. + scopolamine 15 mg/kg i.p., 15 days, n = 8, mean ± SEM
Procedure: The MWM test was performed at the last 5 days including two days of memory and learning training, three days of cognitive assessment. On the fifth day, a probe training trial was performed and analysed. […] However, the dosage of scopolamine was increased from 5 mg/kg to 15 mg/kg to achieve a better modelling effect.
Cognitive and memory assays in vivo
The adult female ICR mice (8-10 weeks old, weight 20-25 g) were obtained from the
Zhejiang Academy of Medical Sciences (Hangzhou, China).
agents were prepared as clear injections, consisting of 10% DMSO, 20%
(2-hydroxypropyl)-β-cyclodextrin and PBS. The mice were trained to find the platform (10 cm
diameter) in the opaque circular pool (120 cm diameter, 60 cm height) filled with water (40 cm,
depth), which was described in detail in our previous study.[1] All mice received at least one
training session daily in four quadrants for four consecutive days before testing of finding the
The mice were randomly divided into four groups: (i) control group (PBS of 20%
were intraperitoneally injected with indicated compounds or solvent 30 min before intraperitoneal
injection with scopolamine or PBS once a day for 15 consecutive days. The Morris water maze
test was performed at the last 5 days.

MAO-A = molecular target: T1, MAO-A (Homo sapiens, UniProt P21397); test: Human MAO-A inhibitory assay; assay type: biochemical; conditions: read-out: IC50 ± SEM MAO-A
T1 sequence (P21397 1-527): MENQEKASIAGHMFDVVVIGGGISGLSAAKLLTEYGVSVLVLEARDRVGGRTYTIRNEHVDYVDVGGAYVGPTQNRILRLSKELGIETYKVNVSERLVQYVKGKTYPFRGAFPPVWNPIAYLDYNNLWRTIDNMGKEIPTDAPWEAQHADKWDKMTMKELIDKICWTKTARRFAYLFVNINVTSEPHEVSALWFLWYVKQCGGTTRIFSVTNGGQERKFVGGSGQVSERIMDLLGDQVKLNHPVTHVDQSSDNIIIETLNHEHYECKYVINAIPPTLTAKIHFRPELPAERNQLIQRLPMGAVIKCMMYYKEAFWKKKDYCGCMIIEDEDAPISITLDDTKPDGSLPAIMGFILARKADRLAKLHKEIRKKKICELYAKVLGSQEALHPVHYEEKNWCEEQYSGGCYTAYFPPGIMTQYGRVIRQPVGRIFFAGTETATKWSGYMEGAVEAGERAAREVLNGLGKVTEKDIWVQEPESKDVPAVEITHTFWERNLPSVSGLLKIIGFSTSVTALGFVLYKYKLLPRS

[3] = pKa determination by spectrophotometric titration; conditions: 0.1 M KCl aqueous solution, pH range 2.0–10.5, 25 °C
MAO-B = molecular target: T2, MAO-B (Homo sapiens, UniProt P27338); test: Human MAO-B inhibition assay; assay type: biochemical
T2 sequence (P27338 1-520): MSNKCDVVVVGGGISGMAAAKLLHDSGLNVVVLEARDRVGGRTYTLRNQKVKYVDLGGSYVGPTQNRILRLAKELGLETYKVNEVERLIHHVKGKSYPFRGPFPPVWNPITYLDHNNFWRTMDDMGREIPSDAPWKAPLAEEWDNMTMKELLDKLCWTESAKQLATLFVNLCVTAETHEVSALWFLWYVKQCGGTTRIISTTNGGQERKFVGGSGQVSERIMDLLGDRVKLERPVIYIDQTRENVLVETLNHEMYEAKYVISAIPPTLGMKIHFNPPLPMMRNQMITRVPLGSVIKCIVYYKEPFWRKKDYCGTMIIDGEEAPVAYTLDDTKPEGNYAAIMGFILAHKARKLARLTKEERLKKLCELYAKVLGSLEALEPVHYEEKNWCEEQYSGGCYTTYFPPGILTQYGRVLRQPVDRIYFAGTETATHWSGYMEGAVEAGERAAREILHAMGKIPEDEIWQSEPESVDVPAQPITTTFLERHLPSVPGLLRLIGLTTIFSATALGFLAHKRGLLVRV

Papp at 6 h, 25 μg/mL (PAMPA-BBB assay; PAMPA): 4.07 ± 0.44 ×10⁻⁶ cm/s | Pe ± SEM (PAMPA-BBB assay; porcine brain lipid, 6 h at 25 °C, eight independent experiments): > 4.0 10^–6 cm/s | IC50 (MAO-A): 14.6 ± 0.231 µM | melting point: 246 to 248 °C | pKa ([3]; KCl (0.1 M)): 3.38 | pKa ([3]; pKa2, KCl (0.1 M)): 9.69 | inhibition at 0.1 µM (MAO-B; 100 nM, read-out: Inhibitory rate ± SEM (%, 100 nM)): > 50% | inhibition at 1 µM (MAO-B; 1 μM, read-out: Inhibitory rate ± SEM (%, 1 μM)): 78.29 ± 0.16% | SI (selectivity index) = IC50 (MAO-A)/IC50 (MAO-B) (MAO-B; selectivity for the MAO-B isoform): 213 | IC50 (MAO-B; ± SEM, read-out: IC50 against MAO-B): 0.0684 ± 0.00605 µM
SMILES: Cc1c(O)c(=O)ccn1CCNC(=O)c1ccc(OCc2ccccc2)cc1 [Compound 8g]
ROS %Gated (percentage of positive cells in the total number of cells) (PC12 cells): 33.32% | ROS Mean (average fluorescence intensity of all cells) (PC12 cells): 106.35 | Prediction of CNS penetrability (PAMPA-BBB assay; from Pe in PAMPA-BBB): CNS + (CNS +: Pe (10^–6 cm/s) > 4.0, high BBB permeability) | Log β2 ([1]; KCl (0.1 M): DMSO = 3:2 (v/v)): 26.04 | Log β3 ([1]; KCl (0.1 M): DMSO = 3:2 (v/v)): 35.65 | Log β1 ([1]; KCl (0.1 M): DMSO = 9:1 (v/v)): 14.60 | pFe^3+ ([1]; pH 7.4, [Fe3+]total = 10^−6 M, [ligand]total = 10^−5 M, calculated from pKa and log β measured in KCl/DMSO): 19.31 | Distance to the target [2]: 2.64 ± 0.52 m | Entries to the target [2]: 4.12 ± 0.40
